Measured values reported in US8986701B2, “Enzyme prodrug cancer therapy selectively targeted to tumor vasculature and methods of production and use thereof” (The Board of Regents of the University of Oklahoma, priority 2003, dated 2015).

Columns and labels:
[1] = L-methioninase enzyme activity with L-methionine as substrate; type: biochemical
Procedure: Protein Content and Enzymatic Activity Determination: The Bradford assay from Bio-Rad (Hercules, Calif.) was used for all protein determinations throughout the purification using bovine serum albumin (BSA) as the standard. Samples were analyzed by denaturing gel electrophoresis using the SDS-PAGE method with Coomassie blue staining (Laemmli, 1970).

HAAE-1 endothelial cells [2] = experiment: Binding stability assay, endothelial cells; type: cell-based, human
Procedure: (§1) Binding Stability Assay: To assess how long the FP remains bound to the surface of the endothelial cells, a modified binding assay was used. Cells on 24-well plates were first incubated for 2 hours at 37° C. in a saturating concentration of biotinylated FP (50 nM) in complete growth medium with 2 mM Ca^2+. Then, the cells were fixed either at day 0, 1, 2 or 3 with 0.25% glutaraldehyde in binding buffer. Excess aldehyde groups were quenched by incubation in a 50 mM NH4Cl in binding buffer. The binding of FP was then quantitated using the same procedure used in the FP binding assay (see above).
(§2) Binding Stability: To assess how long the FP remains bound to the surface of the endothelial cells, a modified binding assay was used. Cells on 24-well plates were first incubated for 2 hours at 37° C. in a saturating concentration of biotinylated FP (50 nM) in complete growth medium with 2 mM Ca^2+. […] The binding of FP was then quantified using the same procedure used in the equilibrium FP binding assay. […] For each cell line, the slope by linear regression of the absorbance/RFU versus time data was obtained, with results as follows: 3.07×10^−5 per day for the endothelial cells (HAAE-1), 4.63×10^−5 per day for the MCF-7 cells, and 5.38×10^−5 per day for the MDA-MB-231 cells. Thus, the rate of change of absorbance/RFU was the lowest for the endothelial cells.

[3] = tested on: PS exposed on MCF-7 breast cancer cells; experiment: Fusion protein equilibrium binding assay, MCF-7; parameters: species or system human; conditions: specific binding, biotin-labeled FP, no H2O2, read-out: dissociation constant (Kd)
Procedure: (§3) Fusion Protein Binding Assay: Endothelial cells were grown to 70-80% confluence in T-75 flasks. Cells were transferred to 24-well culture plates (5×10^4 cells/well) and grown to 80-85% confluence. Cells were fixed to the plate using 0.25% glutaraldehyde in binding buffer (PBS with 2 mM Ca^2+). Excess aldehyde groups were quenched using 50 mM NH4Cl in binding buffer. Varying concentrations of biotinylated FP were diluted in binding buffer containing 0.5% BSA and incubated at 37° C. for 2 hours. After washing with binding buffer with 0.5% BSA, streptavidin-HRP was added at 2 μg/ml and incubated at room temperature for 1 hour. Following washing with binding buffer, HRP was measured by adding the chromogenic substrate O-phenylenediamine (0.4 mg/ml) and hydrogen peroxide (0.012%) in phosphate-citrate buffer. After 30 minutes at room temperature in the dark, the solution was transferred to a transparent 96-well plate, and the absorbance was read at 450 nm on a microtiter plate reader. […] To determine non-specific binding, the same procedure was performed with no Ca^2+ and 5 mM EDTA in the binding buffer. […]
(§4) Binding of Fusion Protein: The ability of the Meth-AnnV FP to bind to human endothelial cells and breast cancer cells with PS exposed on the cell surface was evaluated by equilibrium binding experiments in which increasing concentrations of biotin-labeled FP were used. […]

[4] = tested on: PS exposed on MDA-MB-231 breast cancer cells; experiment: Fusion protein equilibrium binding assay, MDA-MB-231; parameters: species or system human; conditions: specific binding, biotin-labeled FP, no H2O2, read-out: dissociation constant (Kd)
Procedure: as §3, §4

[5] = tested on: PS exposed on HAAE-1 aorta endothelial cells; experiment: Fusion protein equilibrium binding assay, endothelial cells; parameters: species or system human; conditions: specific binding (total minus non-specific without Ca2+), biotin-labeled FP, no H2O2, read-out: dissociation constant (Kd)
Procedure: as §3, §4

[6] = Storage stability of L-methioninase activity in lyophilized form; type: physicochemical; conditions: lyophilized form at −80° C.
[7] = tested on: MDA-MB-231 breast cancer cells; experiment: In vitro enzyme prodrug cytotoxicity (Alamar Blue), MDA-MB-231; type: cell-based, human; conditions: 500 μM L-methionine
Procedure: (§5) In Vitro Enyzme Prodrug Cytotoxicty to Cells: The experiment lasted 3 days, using the same cells for each of the days (day 0, 1, 2, and 3). Cells were grown and plated in 24-well plates with respective growth media using the same procedure as for the FP binding assay (see above). […] On day 0, a saturating concentration of FP was diluted in medium was added and incubated for 2 hours at 37° C. The plates were washed, and medium containing SeMet varying from 0 to 500 μM was added. The Alamar Blue assay was performed on all wells on day 0. […] The solution was transferred to an opaque 96-well plate, and the fluorescence was read at 590 nm using excitation at 530 nm. The blank consisted of wells containing only medium (no cells). After the fluorescence reading, the plates were washed, replaced with fresh medium, and then placed in incubator. The readings were taken every 24 hours for the duration of the experiment. […] The ability of the enzyme prodrug system to eliminate human endothelial cells and breast cancer cells was evaluated using cells grown in vitro and plated on 24-well plates. […] Each of the cell lines in question metabolized the Alamar Blue to produce a fluorescence that was measured to quantify total cell viability. For each day, the fluorescence data from the Alamar Blue assay was expressed as a percentage of the fluorescence for the cells with no FP and 0 μM SeMet (control). […]

MDA-MB-231 cells = experiment: Binding stability assay, MDA-MB-231; type: cell-based, human
Procedure: as §1, §2

MCF-7 cells = experiment: Binding stability assay, MCF-7; type: cell-based, human
Procedure: as §1, §2

endothelial cells = conditions: van Heerde et al., 1994a and b; read-out: Kd, literature values of annexin V binding alone to endothelial cells; cited from earlier work
[8] = tested on: human brain tumor xenografts; conditions: cited from earlier work
[9] = L-methioninase from P. putida; Esaki and Soda 1987; cited from earlier work
HAAE-1 endothelial cells [10] = experiment: In vitro enzyme prodrug cytotoxicity (Alamar Blue), endothelial cells; type: cell-based, human; conditions: with saturating FP; 10 and 100 μM SeMet; days 2 and 3; 500 μM L-methionine
Procedure: as §5

[11] = tested on: MCF-7 breast cancer cells; experiment: In vitro enzyme prodrug cytotoxicity (Alamar Blue), MCF-7; type: cell-based, human
Procedure: as §5

[12] = 50 nM biotinylated FP, days 0-3, 500 μM L-methionine
[13] = period of the experiment 3 days

FP: Fusion protein of Pseudomonas putida L-methioninase linked by a flexible linker to human annexin V, SEQ ID NO:2
methioninase specific activity ([1]; lyophilized FP): 1.0 U/mg of protein
Specific activity ([1]; purification step: After lyophilized): 1.04 U/mg
slope by linear regression of absorbance/RFU versus time (HAAE-1 endothelial cells [2]; [12]): 3.07×10^−5 per day
duration FP stays bound to the cells (HAAE-1 endothelial cells [2]; [13]): at least 3 days
Kd [3]: 1.9 ± 1.2 nM
Kd [4]: 2.2 ± 1.2 nM
Kd [5]: 1.7 ± 0.6 nM
L-methioninase activity on storage [6]: remained relatively constant
cell viability when FP added, no SeMet present ([7]; no SeMet): significant decrease in cell viability
slope by linear regression of absorbance/RFU versus time (MDA-MB-231 cells; [12]): 5.38×10^−5 per day
duration FP stays bound to the cells (MDA-MB-231 cells; [13]): at least 3 days
slope by linear regression of absorbance/RFU versus time (MCF-7 cells; 50 nM biotinylated FP, days 0-3, 2000 μM L-methionine): 4.63×10^−5 per day
duration FP stays bound to the cells (MCF-7 cells; [13]): at least 3 days

annexin V: Ca2+-dependent anionic phospholipid binding protein; literature comparator for binding
Kd (endothelial cells): 2.7 to 15.5 nM

L-methionine-α-deamino-γ-mercaptomethane-lyase [L-methioninase]
tumor regression, share of animals ([8]; after a 10-day period, same combined treatment): one-third
tumor stasis, share of treated animals ([8]; within four days, 44 mg/kg per day i.p. with homocystine and diet restricted in methionine, homocysteine, choline): 100%
relative reactivity for DL-selenomethionine substrate versus L-methionine substrate [9]: 2.8 times

C[Se]CC[C@H](N)C(=O)O [SeMet, selenomethionine]
cell killing (cell viability, Alamar Blue) vs same SeMet without FP (HAAE-1 endothelial cells [10]): Significant cell killing
cell viability vs control, SeMet by itself ([11]; no FP, 500 μM SeMet, day 3, p<0.05): significantly lower
cell killing (cell viability, Alamar Blue) vs same SeMet without FP ([11]; with saturating FP, day 2 with 500 μM SeMet, day 3 with 100 and 500 μM SeMet, 2000 μM L-methionine): significant cell killing
cell killing (cell viability, Alamar Blue) vs same SeMet without FP ([7]; with saturating FP, 10 and 500 μM SeMet, days 1, 2 and 3): significant killing
